{"source": "patent US5538971A", "about": "“Benzoquinoxalines, pharmaceutical compositions containing them and their use in treating schizophrenia” (Sandoz Ltd., priority 1991, dated 1996)", "key": {"rat [1]": {"system": "rat", "experiment": "inhibition of locomotor activity increase induced by a D-1 agonist", "assay_type": "in vivo", "details": "for inhibition of locomotor activity increase (in words): rat, D-1 agonist 10 mg/kg p.o., for the invention's compounds doses of ca. 0.1 to 10 mg/kg p.o. or ca. 0.1 to 0.5 mg/kg s.c.", "description": "In this test, the substance to be tested is applied one hour before the D-1 agonist, and the locomotor activity is measured under red light using photoelectric cells."}, "mouse": {"system": "mouse", "experiment": "apomorphine induced rearing test", "assay_type": "in vivo", "description": "Thus when administered to the mouse at doses of ca. 0.05 to ca. 1 mg/kg p.o., there is observed a significant inhibition of the rearing induced by subcutaneous administration of 0.5 mg/kg of apomorphine. In this test, each mouse is contained in a glass cylinder (20 cm high, 8 cm diameter) on absorbent cardboard and rearing is quantified by accumulating the time spent with both forepaws off the ground during three 1-minute periods at 10 minute intervals after apomorphine administration. […] This test detects both classical and atypical anti-psychotics and thus has predictive value for efficacy in schizophrenia."}, "rat [2]": {"system": "rat", "experiment": "cataleptogenic activity (catalepsy)", "assay_type": "in vivo", "details": "rat, 1, 3.2 and 10 mg/kg p.o., observation period of 8 hours", "description": "Furthermore at doses of ca. 1 to ca. 10 mg/kg p.o., the compounds according to the invention effect no catalepsy of the rat. Cataleptogenic activity is assessed as described by G. Stille et al. in Arzneimittel Forschung 15, 841-843 (1965). The criterion for catalepsy is fulfilled when posture retention time is longer than 10 seconds. In view of the lack of cataleptogenic activity, the risk that the compounds according to the invention might cause extra-pyramidal side effects is improbable."}, "[3]": {"target": "T1, dopamine receptors of the D-1 type (Bos taurus, UniProt Q95136)", "T1 construct": "homogenates of bovine retina; from tissue; host or cells: bovine retina homogenate", "T1 sequence (Q95136 whole entry)": "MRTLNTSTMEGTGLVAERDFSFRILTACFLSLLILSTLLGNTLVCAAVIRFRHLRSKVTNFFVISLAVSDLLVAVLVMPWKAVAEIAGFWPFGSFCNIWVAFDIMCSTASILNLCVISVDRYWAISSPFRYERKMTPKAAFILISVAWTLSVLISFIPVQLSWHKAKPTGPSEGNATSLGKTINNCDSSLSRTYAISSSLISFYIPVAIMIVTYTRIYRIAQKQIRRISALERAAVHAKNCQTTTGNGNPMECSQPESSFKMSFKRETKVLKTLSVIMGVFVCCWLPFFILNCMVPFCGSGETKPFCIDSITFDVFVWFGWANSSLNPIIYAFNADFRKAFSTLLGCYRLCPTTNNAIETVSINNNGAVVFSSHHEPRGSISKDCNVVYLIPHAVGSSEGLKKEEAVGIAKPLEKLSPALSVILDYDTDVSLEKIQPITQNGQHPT", "experiment": "inhibition of the dopamine-induced stimulation of adenylate cyclase in homogenates of bovine retina", "assay_type": "biochemical", "details": "calculated from IC50 according to Cheng and Prusoff, read-out: pKi, adenylate cyclase functional test (converted)", "from_the_text": "At concentrations of ca. 1 nmol/l to ca. […] the compounds according to the invention effect strong inhibition of the dopamine-induced stimulation of adenylate cyclase in homogenates of bovine retina [for the method see R. Markstein, Journal Neural. Transmission 51, 39-59 (1981)].\nThis activity also indicates the use of the compounds according to the invention in schizophrenia."}, "[4]": {"details": "Mus musculus, po, 0.5 h, read-out: ED50, apomorphine-induced rearing"}, "[5]": {"details": "Mus musculus, sc, 0.5 h, read-out: ED50, apomorphine-induced rearing"}}, "note": "Like-named read-outs stand apart in the source and are kept apart here."}
{"smiles": "CN1CC[C@@H](c2ccccc2)[C@@H]2c3cccc4[nH]c(Cl)c(c34)C[C@H]21", "note": "(stereo in doubt) [phenylergoline, (+)-(5R)[5β, 9α, 10α]-2-chloro-6-methyl-9-phenylergoline, reference compound]", "values": [{"measurement": "inhibition at 2 mg/kg", "setting": "rat [1]; Rattus norvegicus, Rat2, po, read-out: inhibition of locomotor activity increase", "value": 45, "unit": "%"}]}
{"smiles": "CN1CCN(C2=Nc3cc(Cl)ccc3Nc3ccccc32)CC1", "note": "[Clozapine, reference compound]", "values": [{"measurement": "inhibition of locomotor activity increase (in words)", "setting": "rat [1]", "value": "active"}, {"measurement": "ED50", "setting": "mouse; po, 0.5 h, mouse, p.o., after 30 minutes, apomorphine 0.5 mg/kg s.c., read-out: ED50, apomorphine-induced rearing", "value": 4.3, "unit": "mg/kg"}, {"measurement": "ED50", "setting": "mouse; sc, 0.5 h, mouse, s.c., after 30 minutes, apomorphine 0.5 mg/kg s.c., read-out: ED50, apomorphine-induced rearing", "value": 0.66, "unit": "mg/kg"}]}
{"smiles": "Cc1cc(Cl)ccc1N1CCN(C)[C@@H]2Cc3cccc(O)c3C[C@H]21", "note": "[Example 2, (-)-[4aR,10aR]-l,2,3,4,4a,5,10,10a-octahydro-4-(4'-chloro-2'-methyl-phenyl)-1-methyl-benzo[g]quinoxaline-6-ol]", "values": [{"measurement": "catalepsy", "setting": "rat [2]", "value": "fails to produce catalepsy"}, {"measurement": "inhibition at 1 mg/kg", "setting": "rat [1]; Rattus norvegicus, po, read-out: inhibition of locomotor activity increase", "value": 76, "unit": "%"}, {"measurement": "inhibition of locomotor activity increase (in words)", "setting": "rat [1]", "value": "inhibits the locomotor activity increase more potently"}, {"measurement": "ED50", "setting": "mouse; [4]", "value": 0.38, "unit": "mg/kg"}, {"measurement": "ED50", "setting": "mouse; Mus musculus, po, 1 h, read-out: E50, apomorphine-induced rearing after subchronic treatment", "value": 0.28, "unit": "mg/kg"}, {"measurement": "ED50", "setting": "mouse; Mus musculus, po, 1 h, read-out: ED50, apomorphine-induced rearing", "value": 0.14, "unit": "mg/kg"}, {"measurement": "ED50", "setting": "mouse; [5]", "value": 0.033, "unit": "mg/kg"}, {"measurement": "ED50", "setting": "mouse; Mus musculus, sc, 1 h, read-out: ED50, apomorphine-induced rearing", "value": 0.04, "unit": "mg/kg"}, {"measurement": "Ki", "setting": "[3]", "value": 50.1, "unit": "nM"}]}
{"smiles": "O=C(CCCN1CCC(O)(c2ccc(Cl)cc2)CC1)c1ccc(F)cc1", "note": "[Haloperidol, reference compound]", "values": [{"measurement": "ED50", "setting": "mouse; [4]", "value": 0.03, "unit": "mg/kg"}, {"measurement": "ED50", "setting": "mouse; [5]", "value": 0.008, "unit": "mg/kg"}]}
